Key:
[1] = target: T1, α4β1 integrin (Jurkat cell adhesion to immobilized CS-1 derived peptide CLHPGEILDVPST) (Homo sapiens, UniProt P05556+P13612); test: Jurkat-CS-1 Assay; format: cell-based; conditions: Jurkat cells on CS-1 peptide coated plates
T1 construct: 100 μl of Jurkat cells (2.5×10^6 cells/ml) in DMEM plus BSA; endogenous in cells; host or cells: Jurkat T-cell line
Summary of the method: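 CS-1 peptide was SPDP-crosslinked onto HSA-coated plates and blocked with BSA. Jurkat cells (2.5×10^6 cells/ml) in DMEM/BSA were mixed with compound, generally at 100, 20, 5 and 1.25 μM, and allowed to adhere for 1 hr at 37° C. Bound cells were fixed, stained with toluidine blue and quantified by OD590.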

[2] = target: T2, α4β1 integrin (Jurkat T-cell adhesion to IL-1 stimulated endothelial cell monolayers) (Homo sapiens, UniProt P05556+P13612); test: Jurkat-Endothelial Cell Adhesion Assay (Jurkat EC); format: cell-based; conditions: Jurkat cells on IL-1 stimulated HUVEC monolayers
T2 construct: a T-cell line, Jurkat, known to express the α4β1 integrin; host or cells: Jurkat T-cell line
Summary of the method: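 BCECF-loaded Jurkat cells (5×10^5) mixed with compound (generally 100, 20, 5 and 1.25 μM) and added to HUVEC monolayers prestimulated 4 hr with 0.1 ng/ml IL-1, in DMEM-HSA. After 5 min on ice and 20 min at 37° C, washed; fluorescence gives % adhesion relative to no-compound control set at 100%.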

T2 sequence (P13612 34-1032): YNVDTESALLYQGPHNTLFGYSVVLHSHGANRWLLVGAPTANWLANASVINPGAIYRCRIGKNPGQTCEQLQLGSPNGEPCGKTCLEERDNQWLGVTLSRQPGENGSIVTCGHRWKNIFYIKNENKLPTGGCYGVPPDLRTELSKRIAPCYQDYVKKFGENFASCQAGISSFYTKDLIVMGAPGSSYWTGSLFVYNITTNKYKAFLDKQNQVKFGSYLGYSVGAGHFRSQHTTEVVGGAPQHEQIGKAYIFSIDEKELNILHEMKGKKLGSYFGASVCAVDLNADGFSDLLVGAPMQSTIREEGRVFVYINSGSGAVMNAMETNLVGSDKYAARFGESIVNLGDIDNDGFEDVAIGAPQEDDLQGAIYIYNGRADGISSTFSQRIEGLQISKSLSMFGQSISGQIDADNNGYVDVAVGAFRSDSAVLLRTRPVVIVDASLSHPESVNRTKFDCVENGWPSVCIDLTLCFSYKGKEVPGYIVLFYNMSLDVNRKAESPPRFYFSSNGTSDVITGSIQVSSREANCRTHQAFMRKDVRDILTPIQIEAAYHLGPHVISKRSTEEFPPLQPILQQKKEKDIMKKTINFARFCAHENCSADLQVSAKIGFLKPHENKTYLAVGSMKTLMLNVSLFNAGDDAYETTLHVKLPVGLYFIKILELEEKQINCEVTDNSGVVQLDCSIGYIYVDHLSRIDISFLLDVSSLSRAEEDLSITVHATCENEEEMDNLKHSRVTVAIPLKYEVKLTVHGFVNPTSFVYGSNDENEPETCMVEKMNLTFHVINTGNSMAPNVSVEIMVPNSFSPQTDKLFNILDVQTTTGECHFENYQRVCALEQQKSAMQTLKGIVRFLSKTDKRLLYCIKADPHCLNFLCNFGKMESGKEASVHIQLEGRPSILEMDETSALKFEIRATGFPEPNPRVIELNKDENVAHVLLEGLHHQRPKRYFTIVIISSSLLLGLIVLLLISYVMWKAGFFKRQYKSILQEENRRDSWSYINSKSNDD
T2 sequence (P05556 21-798): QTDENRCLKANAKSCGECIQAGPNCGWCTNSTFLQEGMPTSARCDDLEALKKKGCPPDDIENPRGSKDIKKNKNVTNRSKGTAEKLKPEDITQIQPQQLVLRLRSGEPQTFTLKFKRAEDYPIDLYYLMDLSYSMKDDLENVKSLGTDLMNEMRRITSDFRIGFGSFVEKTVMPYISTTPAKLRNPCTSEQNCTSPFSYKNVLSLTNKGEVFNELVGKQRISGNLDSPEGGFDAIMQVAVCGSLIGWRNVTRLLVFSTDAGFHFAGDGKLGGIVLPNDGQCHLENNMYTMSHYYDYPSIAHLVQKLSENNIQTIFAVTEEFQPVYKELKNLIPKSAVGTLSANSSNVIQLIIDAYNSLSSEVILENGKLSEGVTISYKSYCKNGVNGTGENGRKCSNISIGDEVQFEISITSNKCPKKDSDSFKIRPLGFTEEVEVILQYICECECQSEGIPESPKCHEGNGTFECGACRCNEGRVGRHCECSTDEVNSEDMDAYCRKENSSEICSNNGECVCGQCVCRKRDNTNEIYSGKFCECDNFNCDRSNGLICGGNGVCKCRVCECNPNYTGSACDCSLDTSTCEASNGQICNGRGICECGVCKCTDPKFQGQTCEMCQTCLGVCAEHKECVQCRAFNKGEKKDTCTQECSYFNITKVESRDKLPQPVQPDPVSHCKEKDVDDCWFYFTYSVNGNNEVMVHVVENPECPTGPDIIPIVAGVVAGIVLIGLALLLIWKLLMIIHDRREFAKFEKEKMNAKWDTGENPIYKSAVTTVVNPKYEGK
T1 sequence (P13612 34-1032): as the sequence (P13612 34-1032) above
T1 sequence (P05556 21-798): as the sequence (P05556 21-798) above

| SMILES | melting point | IC50 [1] | IC50 [2] |
| --- | --- | --- | --- |
| CC1(C)[C@@H](C(=O)N[C@@H](Cc2ccc(NC(=O)c3ccccn3)cc2)C(=O)O)CC[C@@]1(C)C(=O)O [Example 77] | 102 to 104 °C | 80 to 500 nM | 800 to 5000 nM |
| CC1(C)[C@@H](C(=O)N[C@@H](Cc2ccc(NC(=O)c3cccnc3Cl)cc2)C(=O)O)CC[C@@]1(C)C(=O)O [Example 208, (1S-cis)-N-[(3-Carboxy-2,2,3-trimethylcyclopentyl)carbonyl]-4-[[(2-chloro-3-pyridinyl)carbonyl]amino]-L-phenylalanine] | 172 to 174 °C | 80 to 500 nM | ≤ 800 nM |
| CC1(C)[C@@H](C(=O)N[C@@H](Cc2ccc(NC(=O)c3cccc(C(=O)c4ccccc4)c3)cc2)C(=O)O)CC[C@@]1(C)C(=O)O [Example 89] | 190 to 193 °C | 80 to 500 nM | 800 to 5000 nM |
| CC1(C)[C@@H](C(=O)N[C@@H](Cc2ccc(NC(=O)c3ccccc3F)cc2)C(=O)O)CC[C@@]1(C)C(=O)O [Example 132] | 117 to 120 °C | 80 to 500 nM | 800 to 5000 nM |
| Cc1ccc(S(=O)(=O)Nc2ccc(C[C@H](NC(=O)[C@H]3CC[C@@](C)(C(=O)O)C3(C)C)C(=O)O)cc2)cc1 [Example 150] | 220 to 223 °C | 500 to 1000 nM | 800 to 5000 nM |
| CC1(C)[C@@H](C(=O)N[C@@H](Cc2ccc(NC(=O)c3ccc(Cl)c(Cl)c3)cc2)C(=O)O)CC[C@@]1(C)C(=O)O [Example 114] | 155 to 157 °C | 80 to 500 nM | ≤ 800 nM |
| Cc1ccccc1C(=O)Nc1ccc(C[C@H](NC(=O)[C@H]2CC[C@@](C)(C(=O)O)C2(C)C)C(=O)O)cc1 [Example 142] | 152 to 155 °C | 80 to 500 nM | 800 to 5000 nM |
| CC1(C)[C@@H](C(=O)N[C@@H](Cc2ccc(NC(=O)c3cccc4c3Cc3ccccc3-4)cc2)C(=O)O)CC[C@@]1(C)C(=O)O [Example 136] | 160 to 163 °C | 500 to 1000 nM | 5000 to 10000 nM |
| CC1(C)[C@@H](C(=O)N[C@@H](Cc2ccc(NC(=O)c3ccc(Cl)cc3)cc2)C(=O)O)CC[C@@]1(C)C(=O)O [Example 128] | 185 to 188 °C | 80 to 500 nM | 800 to 5000 nM |
| CC1(C)[C@@H](C(=O)N[C@@H](Cc2ccc(O)c(NC(=O)c3c(Cl)cccc3Cl)c2)C(=O)O)CC[C@@]1(C)C(=O)O [Example 61] | 168 to 171 °C | 80 to 500 nM | 800 to 5000 nM |
| CC1(C)[C@@H](C(=O)N[C@@H](Cc2ccc(OCC3CCCCC3)cc2)C(=O)O)CC[C@@]1(C)C(=O)O [Example 13] | 102 to 105 °C | 500 to 1000 nM | 5000 to 10000 nM |
| CC1(C)[C@@H](C(=O)N[C@@H](Cc2ccc(NC(=O)c3ccccc3)cc2)C(=O)O)CC[C@@]1(C)C(=O)O [Example 85] | 145 to 148 °C | 80 to 500 nM | 5000 to 10000 nM |
| CC(C)COC(=O)Nc1ccc(C[C@H](NC(=O)[C@H]2CC[C@@](C)(C(=O)O)C2(C)C)C(=O)O)cc1 [Example 141] | 125 to 128 °C | 500 to 1000 nM | 800 to 5000 nM |
| CC1(C)[C@@H](C(=O)N[C@@H](Cc2ccc(NC(=O)c3ccccc3Cl)cc2)C(=O)O)CC[C@@]1(C)C(=O)O [Example 120] | 143 to 145 °C | 80 to 500 nM | 800 to 5000 nM |
| CC1(C)[C@@H](C(=O)N[C@@H](Cc2ccc(NC(=O)c3ccccc3N)cc2)C(=O)O)CC[C@@]1(C)C(=O)O [Example 144] | 195 to 198 °C | 80 to 500 nM | 800 to 5000 nM |
| COc1ccccc1C(=O)Nc1ccc(C[C@H](NC(=O)[C@H]2CC[C@@](C)(C(=O)O)C2(C)C)C(=O)O)cc1 [Example 95] | 140 to 143 °C | 80 to 500 nM | 800 to 5000 nM |
| Cc1cccc(C)c1C(=O)Nc1ccc(C[C@H](NC(=O)[C@H]2CC[C@@](C)(C(=O)O)C2(C)C)C(=O)O)cc1 [Example 81] | 195 to 198 °C | 80 to 500 nM | ≤ 800 nM |
| CC1(C)[C@@H](C(=O)N[C@@H](Cc2ccc(NC(=O)c3ccccc3O)cc2)C(=O)O)CC[C@@]1(C)C(=O)O [Example 143] | 148 to 150 °C | 500 to 1000 nM |  |
| CC1(C)[C@@H](C(=O)N[C@@H](Cc2ccc(NC(=O)C3Cc4ccccc4CN3)cc2)C(=O)O)CC[C@@]1(C)C(=O)O (some centres unmarked) [Example 146] | 208 to 211 °C | 80 to 500 nM | 800 to 5000 nM |
| CC1(C)[C@@H](C(=O)N[C@@H](Cc2ccc(NC(=O)c3cc(Br)ccc3Br)cc2)C(=O)O)CC[C@@]1(C)C(=O)O [Example 97] | 170 to 173 °C | ≤ 80 nM | ≤ 800 nM |

Further lines, results first:

| melting point | IC50 [1] | IC50 [2] | SMILES |
| --- | --- | --- | --- |
| 155 to 158 °C | ≤ 80 nM | ≤ 800 nM | CC1(C)[C@@H](C(=O)N[C@@H](Cc2ccc(NC(=O)c3cc(Cl)ccc3Cl)cc2)C(=O)O)CC[C@@]1(C)C(=O)O [Example 87] |
| 180 to 183 °C | ≤ 80 nM | ≤ 800 nM | CC1(C)[C@@H](C(=O)N[C@@H](Cc2ccc(NC(=O)c3ccccc3C(F)(F)F)cc2)C(=O)O)CC[C@@]1(C)C(=O)O [Example 108] |
| 162 to 165 °C | ≤ 80 nM | ≤ 800 nM | CC1(C)[C@@H](C(=O)N[C@@H](Cc2ccc(NC(=O)c3ccc(-c4ccccc4)cc3)cc2)C(=O)O)CC[C@@]1(C)C(=O)O [Example 116] |
| 100 to 103 °C | ≤ 80 nM | ≤ 800 nM | CC1(C)[C@@H](C(=O)N[C@@H](Cc2ccc(NCc3c(Cl)cccc3Cl)cc2)C(=O)O)CC[C@@]1(C)C(=O)O [Example 152] |
| 162 to 165 °C | ≤ 80 nM | ≤ 800 nM | CC1(C)[C@@H](C(=O)N[C@@H](Cc2ccc(NC(=O)c3ccccc3I)cc2)C(=O)O)CC[C@@]1(C)C(=O)O [Example 110] |
| 246 to 247 °C | ≤ 80 nM | ≤ 800 nM | CC1(C)[C@@H](C(=O)N[C@@H](Cc2ccc(NC(=O)c3ccc(Cl)nc3Cl)cc2)C(=O)O)CC[C@@]1(C)C(=O)O [Example 209, (1S-cis)-N-[(3-Carboxy-2,2,3-trimethylcyclopentyl)carbonyl]-4-[[(2,6-dichloro-3-pyridinyl)carbonyl]amino]-L-phenylalanine] |
| 148 to 150 °C | ≤ 80 nM | ≤ 800 nM | CC1(C)[C@@H](C(=O)N[C@@H](Cc2ccc(NC(=O)c3cc(C(F)(F)F)ccc3C(F)(F)F)cc2)C(=O)O)CC[C@@]1(C)C(=O)O [Example 104] |
| 156 to 158 °C | ≤ 80 nM | ≤ 800 nM | CC1(C)[C@@H](C(=O)N[C@@H](Cc2ccc(NC(=O)c3ccccc3Br)cc2)C(=O)O)CC[C@@]1(C)C(=O)O [Example 112] |
| 128 to 131 °C | ≤ 80 nM | ≤ 800 nM | COc1nc(Cl)ccc1C(=O)Nc1ccc(C[C@H](NC(=O)[C@H]2CC[C@@](C)(C(=O)O)C2(C)C)C(=O)O)cc1 [Example 210, (1S-cis)-N-[(3-Carboxy-2,2,3-trimethylcyclopentyl)carbonyl]-4-[[(2-methoxy-6-chloropyridin-3-yl)carbonyl]-amino]-L-phenylalanine] |
| 165 to 168 °C | ≤ 80 nM | ≤ 800 nM | Cc1cccc(Cl)c1C(=O)Nc1ccc(C[C@H](NC(=O)[C@H]2CC[C@@](C)(C(=O)O)C2(C)C)C(=O)O)cc1 [Example 106] |
